# Data from patent US20230233569A1 (Revolution Medicines, Inc., priority 2020, published 2023).
# Key:
# KRAS G12S = KRAS G12S (Homo sapiens, UniProt P01116+P62937, G12S); test: Disruption of BRAF RBD interaction with Ras (FRET / MOA assay, with Cyclophilin A); type: biochemical; conditions: read-out: KRAS G12S FRET data, IC50
# Method in brief: (§1)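 Compound-driven ternary complex formation between nucleotide-loaded K-Ras and Cyclophilin A was measured as loss of BRAF RBD binding. Compounds (10-point 3-fold series, top 30 μM final) were incubated 3 h at 25 °C, then anti-His Eu-W1024 (10 nM) and anti-GST allophycocyanin (50 nM) added for 1.5 h. IC50 was taken from the TR-FRET ratio decrease versus DMSO.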
# KRAS G13C = KRAS G13C (Homo sapiens, UniProt P01116+P62937, G13C); test: as above; type: biochemical; conditions: read-out: KRAS G13C FRET data, IC50
# Method in brief: as §1
# KRAS G12C = KRAS G12C (Homo sapiens, UniProt P01116+P62937, G12C); test: as above; type: biochemical; conditions: read-out: KRAS G12C FRET data, IC50
# Method in brief: as §1
# KRAS WT = KRAS WT (Homo sapiens, UniProt P01116+P62937); test: as above; type: biochemical; conditions: KRAS WT; read-out: KRAS WT FRET data IC50
# Method in brief: as §1
# KRAS G12D = KRAS G12D (Homo sapiens, UniProt P01116+P62937, G12D); test: as above; type: biochemical; conditions: read-out: KRAS G12D FRET data, IC50
# Method in brief: as §1
# NRAS G12C = NRAS G12C (Homo sapiens, UniProt P01111+P62937, G12C); test: as above; type: biochemical; conditions: NRAS G12C; read-out: NRAS G12C FRET data IC50
# KRAS G12V = KRAS G12V (Homo sapiens, UniProt P01116+P62937, G12V); test: as above; type: biochemical; conditions: KRAS G12V; read-out: KRAS G12V FRET data IC50
# Method in brief: as §1
# KRAS G13D = KRAS G13D (Homo sapiens, UniProt P01116+P62937, G13D); test: as above; type: biochemical; conditions: KRAS G13D; read-out: KRAS G13D FRET data IC50
# Method in brief: as §1
# Capan-1 (K-Ras G12V) = test: CellTiter-Glo cell viability assay, 5-day treatment; type: cell-based; conditions: Homo sapiens, CAPAN-1, 120 h, 5-day treatment; read-out: Capan-1 Cell Viability assay data (K-Ras G12V, IC50)
# Method in brief: (§2)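 Five-day compound treatment of plated cells; luminescent read after ~30 min at RT. Percent-of-DMSO data fit to a four-parameter logistic model.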
# NCI-H358 (K-Ras G12C) = test: as above; type: cell-based; conditions: Homo sapiens, NCI-H358, 120 h, 5-day treatment; read-out: H358 Cell Viability assay data (K-Ras G12C, IC50)
# Method in brief: as §2
# Chain of KRAS G12V (P01116 1-169 isoform P01116-2 G12V limits assumed): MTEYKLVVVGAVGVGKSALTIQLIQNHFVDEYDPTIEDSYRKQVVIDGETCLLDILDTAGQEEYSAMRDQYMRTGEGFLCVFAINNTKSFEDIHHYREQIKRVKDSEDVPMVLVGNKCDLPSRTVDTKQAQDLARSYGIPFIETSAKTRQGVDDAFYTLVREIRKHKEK
# Chain of KRAS G12V (P62937 whole entry): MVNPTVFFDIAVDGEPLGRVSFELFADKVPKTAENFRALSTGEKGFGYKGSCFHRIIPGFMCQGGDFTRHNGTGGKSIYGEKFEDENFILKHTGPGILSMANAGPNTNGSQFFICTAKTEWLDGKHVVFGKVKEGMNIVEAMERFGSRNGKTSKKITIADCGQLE
# Chain of KRAS G12C (P01116 1-169 isoform P01116-2 G12C): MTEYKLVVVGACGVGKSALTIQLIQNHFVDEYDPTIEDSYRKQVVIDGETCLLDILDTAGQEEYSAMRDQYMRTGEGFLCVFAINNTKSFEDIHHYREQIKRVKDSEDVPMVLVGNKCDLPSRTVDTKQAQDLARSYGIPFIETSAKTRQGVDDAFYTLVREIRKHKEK
# Chain of KRAS G12C (P62937 whole entry): as the sequence (P62937 whole entry) above
# Chain of KRAS G13C (P01116 1-169 isoform P01116-2 G13C): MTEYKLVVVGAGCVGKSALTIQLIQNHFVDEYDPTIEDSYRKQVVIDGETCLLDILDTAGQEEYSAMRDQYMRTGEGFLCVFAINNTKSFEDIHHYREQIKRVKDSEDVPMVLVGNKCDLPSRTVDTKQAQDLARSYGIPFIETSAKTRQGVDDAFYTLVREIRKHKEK
# Chain of KRAS G13C (P62937 whole entry): as the sequence (P62937 whole entry) above
# Chain of KRAS G12S (P01116 1-169 isoform P01116-2 G12S limits assumed): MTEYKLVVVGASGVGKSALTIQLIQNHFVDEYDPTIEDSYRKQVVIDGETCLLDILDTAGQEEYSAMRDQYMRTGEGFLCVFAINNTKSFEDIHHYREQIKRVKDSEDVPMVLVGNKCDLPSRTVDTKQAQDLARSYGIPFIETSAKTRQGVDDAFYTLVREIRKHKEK
# Chain of KRAS G12S (P62937 whole entry): as the sequence (P62937 whole entry) above
# Chain of KRAS G13D (P01116 1-169 isoform P01116-2 G13D limits assumed): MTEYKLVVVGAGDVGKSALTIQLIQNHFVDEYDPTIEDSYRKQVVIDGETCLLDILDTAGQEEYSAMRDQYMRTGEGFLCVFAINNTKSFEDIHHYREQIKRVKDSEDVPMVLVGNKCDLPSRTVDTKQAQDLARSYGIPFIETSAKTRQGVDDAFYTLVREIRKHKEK
# Chain of KRAS G13D (P62937 whole entry): as the sequence (P62937 whole entry) above
# Chain of KRAS G12D (P01116 1-169 isoform P01116-2 G12D limits assumed): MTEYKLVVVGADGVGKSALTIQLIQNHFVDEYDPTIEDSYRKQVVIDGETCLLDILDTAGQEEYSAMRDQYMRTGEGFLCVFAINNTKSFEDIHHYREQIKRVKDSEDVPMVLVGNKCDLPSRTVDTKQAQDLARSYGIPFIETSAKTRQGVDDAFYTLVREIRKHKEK
# Chain of KRAS G12D (P62937 whole entry): as the sequence (P62937 whole entry) above
# Chain of NRAS G12C (P01111 whole entry G12C): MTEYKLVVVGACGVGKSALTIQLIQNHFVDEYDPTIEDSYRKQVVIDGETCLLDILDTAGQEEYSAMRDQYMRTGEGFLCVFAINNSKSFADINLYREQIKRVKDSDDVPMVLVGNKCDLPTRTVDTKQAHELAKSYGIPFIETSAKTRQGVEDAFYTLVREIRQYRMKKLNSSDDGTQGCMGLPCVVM
# Chain of NRAS G12C (P62937 whole entry): as the sequence (P62937 whole entry) above
# Chain of KRAS WT (P01116 1-169 isoform P01116-2 limits assumed): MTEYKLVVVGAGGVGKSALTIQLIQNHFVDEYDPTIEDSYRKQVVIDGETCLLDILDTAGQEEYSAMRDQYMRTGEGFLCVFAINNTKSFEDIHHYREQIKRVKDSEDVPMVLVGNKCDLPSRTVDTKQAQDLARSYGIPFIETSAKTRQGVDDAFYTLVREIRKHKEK
# Chain of KRAS WT (P62937 whole entry): as the sequence (P62937 whole entry) above
SMILES,IC50 (KRAS G12S) [nM],IC50 (KRAS G13C) [nM],IC50 (KRAS G12C) [nM],IC50 (KRAS WT) [nM],IC50 (KRAS G12D) [nM],IC50 (NRAS G12C) [nM],IC50 (KRAS G12V) [nM],IC50 (KRAS G13D) [nM],IC50 (Capan-1 (K-Ras G12V)) [nM],IC50 (NCI-H358 (K-Ras G12C)) [nM]
CCn1c(-c2cccnc2[C@H](C)OC)c2c3cc(ccc31)-c1csc(n1)C[C@H](NC(=O)[C@H](C(C)C)N(C)C(=O)N1CC(N3CCN(C)CC3)C1)C(=O)N1CCC[C@H](N1)C(=O)OCC(C)(C)C2 [Example A288],100 to 1000,100 to 1000,10 to 100,100 to 1000,100 to 1000,10 to 100,100 to 1000,100 to 1000,10 to 100,10 to 100
CCn1c(-c2cccnc2[C@H](C)OC)c2c3cc(ccc31)-c1csc(n1)C[C@H](NC(=O)[C@H](C(C)C)N(C)C(=O)N1CCOC3(CN(C)C3)C1)C(=O)N1CCC[C@H](N1)C(=O)OCC(C)(C)C2 [Example A294],100 to 1000,100 to 1000,100 to 1000,100 to 1000,100 to 1000,100 to 1000,100 to 1000,100 to 1000,100 to 1000,10 to 100
CCn1c(-c2cccnc2[C@H](C)OC)c2c3cc(ccc31)-c1csc(n1)C[C@H](NC(=O)[C@H](C(C)C)N(C)C(=O)N1CCN(C)C3(CC3)C1)C(=O)N1CCC[C@H](N1)C(=O)OCC(C)(C)C2 [Example A311],100 to 1000,100 to 1000,100 to 1000,100 to 1000,100 to 1000,100 to 1000,100 to 1000,100 to 1000,100 to 1000,10 to 100
CCn1c(-c2cccnc2[C@H](C)OC)c2c3cc(ccc31)-c1csc(n1)C[C@H](NC(=O)[C@H](C(C)C)N(C)C(=O)N1C[C@H]3CN(C)C[C@H]3C1)C(=O)N1CCC[C@H](N1)C(=O)OCC(C)(C)C2 [Example A313],100 to 1000,100 to 1000,100 to 1000,100 to 1000,100 to 1000,10 to 100,100 to 1000,100 to 1000,10 to 100,10 to 100
CCN(CC)C1CN(C(=O)N(C)[C@H](C(=O)N[C@H]2Cc3nc(cs3)-c3ccc4c(c3)c(c(-c3cccnc3[C@H](C)OC)n4CC)CC(C)(C)COC(=O)[C@@H]3CCCN(N3)C2=O)C(C)C)C1 [Example A319],100 to 1000,100 to 1000,100 to 1000,100 to 1000,1000 to 10000,10 to 100,100 to 1000,100 to 1000,10 to 100,10 to 100
CCn1c(-c2cccnc2[C@H](C)OC)c2c3cc(ccc31)-c1csc(n1)C[C@H](NC(=O)[C@H](C(C)C)N(C)C(=O)N1CC(N3CCCC3)C1)C(=O)N1CCC[C@H](N1)C(=O)OCC(C)(C)C2 [Example A329],100 to 1000,100 to 1000,100 to 1000,100 to 1000,1000 to 10000,100 to 1000,100 to 1000,100 to 1000,10 to 100,10 to 100
CCn1c(-c2cccnc2[C@H](C)OC)c2c3cc(ccc31)-c1csc(n1)C[C@H](NC(=O)[C@H](C(C)C)N(C)C(=O)N(C)CC(C)C)C(=O)N1CCC[C@H](N1)C(=O)OCC(C)(C)C2 [Example A332],100 to 1000,100 to 1000,100 to 1000,100 to 1000,100 to 1000,100 to 1000,100 to 1000,100 to 1000,100 to 1000,100 to 1000
CCN(C(=O)N(C)[C@H](C(=O)N[C@H]1Cc2nc(cs2)-c2ccc3c(c2)c(c(-c2cccnc2[C@H](C)OC)n3CC)CC(C)(C)COC(=O)[C@@H]2CCCN(N2)C1=O)C(C)C)C(C)C [Example A333],100 to 1000,100 to 1000,10 to 100,10 to 100,100 to 1000,10 to 100,100 to 1000,100 to 1000,100 to 1000,10 to 100
